In patent US20250264459A1, “IN VITRO ASSAY TO PREDICT CARDIOTOXICITY” (Stemina Biomarker Discovery, Inc., priority 2018, published 2025):
Where two headings read alike, the source gives them in different places. Where a SMILES comes first, the peptide text is derived from it.

How the values were obtained:
[1] = cited from earlier work
[2] = tested on: human iPSC-CM (iCell Cardiomyocytes); experiment: Dose-response cell viability (CellTiter-Fluor) in iPSC-derived cardiomyocytes, maximum acceptable viability exposure; type: cell-based
Procedure: Metabolomic data was acquired to identify non-cytotoxic exposure levels and identify biomarkers of cardiotoxicity from a dose-response experiment using spent medium of iPSC-CM treated with 53 of the compounds in the training set. Briefly, human iPSC-CM (iCell® Cardiomyocytes, cat #R1007, Cellular Dynamics International) were exposed to eight concentrations of each training set compound. Spent media was collected for LC-MS analysis and cell viability was assessed with the CellTiter-Fluor Cell Viability Assay (Promega). Spent media samples were prepared and analyzed using the methods developed in Specific Aim 1. The spent media samples from iPSC-CM treated with 10 representative cardiotoxic and non-cardiotoxic compounds were analyzed with all four LC-MS methods to rank biological significant secretome features by predictive capacity. […]
The goal of the concentration-response phase of biomarker identification was to identify non-cytotoxic exposure levels that change iPSC-CM metabolism. The method included modeling feature response, calculating maximum acceptable viability (MAVE), determining response at Cmax, and MAVE, reviewing the top 4 responding features, and selecting the highest tested exposure with 90% viability.

SMILES: Nc1nc2c(ncn2COCCO)c(=O)[nH]1 [Acyclovir]
- Cmax Total ([1]; therapeutic total Cmax): 6700 nM
- MAVE (Maximum Acceptable Viability Exposure) ([2]; human): 100 µM

SMILES: CN(C)CCC=C1c2ccccc2CCc2ccccc21 [Amitriptyline]
- Cmax Total ([1]; therapeutic total Cmax): 950 nM
- MAVE (Maximum Acceptable Viability Exposure) ([2]; human): 1 µM

SMILES: CC1(C)S[C@@H]2[C@H](NC(=O)[C@H](N)c3ccc(O)cc3)C(=O)N2[C@H]1C(=O)O [Amoxicillin]
- Cmax Total ([1]; therapeutic total Cmax): 17000 nM
- MAVE (Maximum Acceptable Viability Exposure) ([2]; human): 100 µM

SMILES: C[C@@H]1[C@H](O)[C@@H](C)/C=C/C=C/C=C/C=C/C=C/C=C/C=C/[C@H](O[C@@H]2O[C@H](C)[C@@H](O)[C@H](N)[C@@H]2O)C[C@@H]2O[C@](O)(C[C@@H](O)C[C@@H](O)[C@H](O)CC[C@@H](O)C[C@@H](O)CC(=O)O[C@H]1C)C[C@H](O)[C@H]2C(=O)O [Amphotericin B]
- Cmax Total ([1]; therapeutic total Cmax): 89800 nM
- MAVE (Maximum Acceptable Viability Exposure) ([2]; highest exposure tested with ≥90% viability, iPSC-CM, eight concentrations): 3 µM

SMILES: O=C1CN2Cc3c(ccc(Cl)c3Cl)N=C2N1 [Anagrelide]
- Cmax Total ([1]; therapeutic total Cmax): 60 nM
- MAVE (Maximum Acceptable Viability Exposure) ([2]; human): 30 µM

SMILES: O=C1O[C@H]([C@@H](O)CO)C(O)=C1O [Ascorbic Acid]
- Cmax Total ([1]; therapeutic total Cmax): 36000 nM
- MAVE (Maximum Acceptable Viability Exposure) ([2]; human): 100 µM

SMILES: COC(=O)[C@H](Cc1ccccc1)NC(=O)[C@@H](N)CC(=O)O [Aspartame] (H-Asp-Phe-OMe)
- Cmax Total ([1]; therapeutic total Cmax): 1000 nM
- MAVE (Maximum Acceptable Viability Exposure) ([2]; human): 100 µM

SMILES: COc1ccc(CCN2CCC(Nc3nc4ccccc4n3Cc3ccc(F)cc3)CC2)cc1 [Astemizole]
- Cmax Total ([1]; therapeutic total Cmax): 8 nM
- MAVE (Maximum Acceptable Viability Exposure) ([2]; human): 3 µM

SMILES: O=C(O)c1ccccc1 [Benzoic Acid]
- Cmax Total ([1]; therapeutic total Cmax): 36000 nM
- MAVE (Maximum Acceptable Viability Exposure) ([2]; human): 100 µM

SMILES: O=C(O)CCCC[C@@H]1SC[C@@H]2NC(=O)N[C@@H]21 [Biotin]
- Cmax Total ([1]; therapeutic total Cmax): 10 nM
- MAVE (Maximum Acceptable Viability Exposure) ([2]; human): 100 µM

SMILES: CC(C)C[C@H](NC(=O)[C@H](Cc1ccccc1)NC(=O)c1cnccn1)B(O)O [Bortezomib]
- Cmax Total ([1]; therapeutic total Cmax): 300 nM
- MAVE (Maximum Acceptable Viability Exposure) ([2]; human): 0.1 µM

SMILES: CCN(CC)CCCC(C)Nc1ccnc2cc(Cl)ccc12 (stereo not drawn) [Chloroquine]
- Cmax Total ([1]; therapeutic total Cmax): 960 nM
- MAVE (Maximum Acceptable Viability Exposure) ([2]; human): 3 µM

SMILES: COc1cc(N)c(Cl)cc1C(=O)NC1CCN(CCCOc2ccc(F)cc2)CC1OC (stereo not drawn) [Cisapride]
- Cmax Total ([1]; therapeutic total Cmax): 180 nM
- MAVE (Maximum Acceptable Viability Exposure) ([2]; human): 100 µM

SMILES: O=C(O)CC(O)(CC(=O)O)C(=O)O [Citric Acid]
- Cmax Total ([1]; therapeutic total Cmax): 128000 nM
- MAVE (Maximum Acceptable Viability Exposure) ([2]; human): 100 µM

SMILES: CN1CCN(C2=Nc3cc(Cl)ccc3Nc3ccccc32)CC1 [Clozapine]
- Cmax Total ([1]; therapeutic total Cmax): 950 nM
- MAVE (Maximum Acceptable Viability Exposure) ([2]; human): 10 µM

SMILES: Cc1nc(Nc2ncc(C(=O)Nc3c(C)cccc3Cl)s2)cc(N2CCN(CCO)CC2)n1 [Dasatinib]
- Cmax Total ([1]; therapeutic total Cmax): 720 nM
- MAVE (Maximum Acceptable Viability Exposure) ([2]; human): 10 µM

SMILES: COc1cccc2c1C(=O)c1c(O)c3c(c(O)c1C2=O)C[C@@](O)(C(C)=O)C[C@@H]3O[C@H]1C[C@H](N)[C@H](O)[C@H](C)O1 [Daunorubicin]
- Cmax Total ([1]; therapeutic total Cmax): 89000 nM
- MAVE (Maximum Acceptable Viability Exposure) ([2]; human): 0.1 µM

SMILES: CCN[C@@H](C)Cc1cccc(C(F)(F)F)c1 [Dexfenfluramine]
- Cmax Total ([1]; in vivo): 400 nM
- MAVE (Maximum Acceptable Viability Exposure) ([2]; human): 30 µM

SMILES: CCN1/C(=C/C=C/C=C/c2sc3ccccc3[n+]2CC)Sc2ccccc21 [Dithiazanine Iodide]
- Cmax Total ([1]; therapeutic total Cmax): 100 nM
- MAVE (Maximum Acceptable Viability Exposure) ([2]; human): 0.1 µM

SMILES: CN(CCOc1ccc(NS(C)(=O)=O)cc1)CCc1ccc(NS(C)(=O)=O)cc1 [Dofetilide]
- Cmax Total ([1]; therapeutic total Cmax): 8 nM
- MAVE (Maximum Acceptable Viability Exposure) ([2]; human): 100 µM

SMILES: COc1cccc2c1C(=O)c1c(O)c3c(c(O)c1C2=O)C[C@@](O)(C(=O)CO)C[C@@H]3O[C@H]1C[C@H](N)[C@H](O)[C@H](C)O1 [Doxorubicin]
- Cmax Total ([1]; therapeutic total Cmax): 15300 nM
- MAVE (Maximum Acceptable Viability Exposure) ([2]; human): 0.1 µM

SMILES: COc1ccc(C(=O)Nc2ccccc2CCC2CCCCN2C)cc1 (stereo not drawn) [Encainide]
- Cmax Total ([1]; therapeutic total Cmax): 710 nM
- MAVE (Maximum Acceptable Viability Exposure) ([2]; human): 100 µM

SMILES: C#Cc1cccc(Nc2ncnc3cc(OCCOC)c(OCCOC)cc23)c1 [Erlotinib]
- Cmax Total ([1]; therapeutic total Cmax): 3800 nM
- MAVE (Maximum Acceptable Viability Exposure) ([2]; human): 3 µM

SMILES: O=c1[nH]cc(F)c(=O)[nH]1 [Fluorouracil]
- Cmax Total ([1]; therapeutic total Cmax): 4600 nM
- MAVE (Maximum Acceptable Viability Exposure) ([2]; human): 100 µM

SMILES: CCCCCCc1ccc(O)cc1O [Hexylresorcinol]
- Cmax Total ([1]; therapeutic total Cmax): 1000 nM
- MAVE (Maximum Acceptable Viability Exposure) ([2]; human): 30 µM

SMILES: CC(=O)[C@]1(O)Cc2c(O)c3c(c(O)c2[C@@H](O[C@H]2C[C@H](N)[C@H](O)[C@H](C)O2)C1)C(=O)c1ccccc1C3=O [Idarubicin]
- Cmax Total ([1]; therapeutic total Cmax): 120 nM
- MAVE (Maximum Acceptable Viability Exposure) ([2]; human): 0.1 µM

SMILES: Cc1ccc(NC(=O)c2ccc(CN3CCN(C)CC3)cc2)cc1Nc1nccc(-c2cccnc2)n1 [Imatinib]
- MAVE (Maximum Acceptable Viability Exposure) ([2]; human): 3 µM

SMILES: CC(C)NCC(O)c1ccc(O)c(O)c1 (stereo not drawn) [Isoproterenol]
- Cmax Total ([1]; therapeutic total Cmax): 10 nM
- MAVE (Maximum Acceptable Viability Exposure) ([2]; human): 100 µM

SMILES: CS(=O)(=O)CCNCc1ccc(-c2ccc3ncnc(Nc4ccc(OCc5cccc(F)c5)c(Cl)c4)c3c2)o1 [Lapatinib]
- Cmax Total ([1]; therapeutic total Cmax): 4180 nM
- MAVE (Maximum Acceptable Viability Exposure) ([2]; human): 10 µM

SMILES: CC(C)C[C@H](N)C(=O)O [Leucine]
- MAVE (Maximum Acceptable Viability Exposure) ([2]; human): 100 µM

SMILES: Cc1occc(=O)c1O [Maltol]
- Cmax Total ([1]; therapeutic total Cmax): 30000 nM
- MAVE (Maximum Acceptable Viability Exposure) ([2]; human): 100 µM

SMILES: O=C1c2c(O)ccc(O)c2C(=O)c2c(NCCNCCO)ccc(NCCNCCO)c21 [Mitoxantrone]
- MAVE (Maximum Acceptable Viability Exposure) ([2]; human): 1 µM

SMILES: C[C@@H]1C/C=C/C=C/C=C/C=C/[C@H](O[C@@H]2O[C@H](C)[C@@H](O)[C@H](N)[C@@H]2O)C[C@@H]2O[C@](O)(C[C@@H](O)C[C@H]3O[C@@H]3/C=C/C(=O)O1)C[C@H](O)[C@H]2C(=O)O [Natamycin]
- MAVE (Maximum Acceptable Viability Exposure) ([2]; human): 30 µM

SMILES: CC(=O)O[C@H]1C(=O)[C@@]2(C)[C@H]([C@H](OC(=O)c3ccccc3)[C@]3(O)C[C@H](OC(=O)[C@H](O)[C@@H](NC(=O)c4ccccc4)c4ccccc4)C(C)=C1C3(C)C)[C@]1(OC(C)=O)CO[C@@H]1C[C@@H]2O [Paclitaxel]
- MAVE (Maximum Acceptable Viability Exposure) ([2]; human): 0.03 µM

SMILES: CNC(=O)c1cc(Oc2ccc(NC(=O)Nc3ccc(Cl)c(C(F)(F)F)c3)cc2)ccn1 [Sorafenib]
- MAVE (Maximum Acceptable Viability Exposure) ([2]; human): 3 µM

SMILES: O=C(O)C(O)C(O)C(=O)O (stereo not drawn) [Tartaric Acid]
- MAVE (Maximum Acceptable Viability Exposure) ([2]; human): 100 µM

SMILES: CSc1ccc2c(c1)N(CCC1CCCCN1C)c1ccccc1S2 (stereo not drawn) [Thioridazine]
- MAVE (Maximum Acceptable Viability Exposure) ([2]; human): 1 µM
